From patent US10336762B2 (priority 2017, dated 2019)
Like-named read-outs stand apart in the source and are kept apart here.

What was measured:
[1] = tested on: TNFα; test: cells; assay type: cell-based, human; details: Homo sapiens, Monocyte, LPS-stimulated human monocytes, read-out: EC50 TNF
[2] = molecular target: IRAK4 enzyme (Homo sapiens (Human), UniProt Q9NWZ3); test: biochemical; assay type: biochemical; details: IRAK4 enzyme, 500 μM ATP
Sequence of IRAK4 enzyme (Q9NWZ3 whole entry): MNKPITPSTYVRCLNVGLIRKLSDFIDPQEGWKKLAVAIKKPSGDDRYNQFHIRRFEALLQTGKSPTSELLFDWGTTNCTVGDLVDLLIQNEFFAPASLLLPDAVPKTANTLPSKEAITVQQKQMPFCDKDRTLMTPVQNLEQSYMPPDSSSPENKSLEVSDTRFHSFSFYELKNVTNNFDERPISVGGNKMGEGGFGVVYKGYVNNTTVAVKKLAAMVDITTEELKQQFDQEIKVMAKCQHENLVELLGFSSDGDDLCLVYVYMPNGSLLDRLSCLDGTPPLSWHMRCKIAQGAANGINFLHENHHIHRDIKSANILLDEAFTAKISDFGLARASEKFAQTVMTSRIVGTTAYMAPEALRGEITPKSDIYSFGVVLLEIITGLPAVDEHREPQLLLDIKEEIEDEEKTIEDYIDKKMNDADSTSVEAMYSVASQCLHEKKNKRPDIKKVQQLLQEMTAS

Row | SMILES | EC50 ([1]; TNFα content) [nM] | IC50 ([2]; TR-FRET) [nM] | EC50 ([1]; TNFα by TR-FRET) [nM] | IC50 ([2]; TR-FRET (HTRF)) [nM]
1 | CC(C)(O)[C@H](F)CNC(=O)c1cnc(-c2ccc3cc(C#N)cnn23)cc1Nc1cnn([C@@H]2CCN(C3COC3)C2)c1 [Example 206, 6-(3-cyanopyrrolo[1,2-b]pyridazin-7-yl)-N-((R)-2-fluoro-3-hydroxy-3-methylbutyl)-4-((1-((R)-1-(oxetan-3-yl)pyrrolidin-3-yl)-1H-pyrazol-4-yl)amino)nicotinamide] | 133 | 1 | – | –
2 | CC(C)Nc1cc(-c2ccc3cc(C#N)cnn23)ncc1C(=O)N[C@H]1CC[C@H](NC(=O)N2CCOCC2)CC1 [Example 126, N-((1r,4r)-4-(6-(3-cyano-pyrrolo[1,2-b]pyridazin-7-yl)-4-(isopropylamino)nicotinamido)cyclohexyl) morpholine-4-carboxamide] | 92 | 1 | – | –
3 | CCOc1cc(Nc2cc(-c3ccc4cc(C#N)cnn34)ncc2C(=O)NC[C@@H](F)C(C)(C)O)ccn1 [Example 847, (R)-6-(3-cyanopyrrolo[1,2-b]pyridazin-7-yl)-4-((2-ethoxypyridin-4-yl)amino)-N-(2-fluoro-3-hydroxy-3-methylbutyl)nicotinamide] | – | < 1 | 69 | –
4 | CNC(=O)c1cnc(-c2ccc3cc(C#N)cnn23)cc1NC12CCC(C(=O)NC3CC3)(CC1)CC2 [Example 481, 6-(3-cyanopyrrolo[1,2-b]pyridazin-7-yl)-4-((4-(cyclopropylcarbamoyl)bicyclo[2.2.2]octan-1-yl)amino)-N-methylnicotinamide] | 63 | – | – | 2
5 | CC(C)(O)[C@H](F)CNC(=O)c1cnc(-c2ccc3cc(C#N)cnn23)cc1NC1CC2(COC2)C1 [Example 82, (R)-4-(2-oxaspiro[3.3]heptan-6-ylamino)-6-(3-cyanopyrrolo[1,2-b]pyridazin-7-yl)-N-(2-fluoro-3-hydroxy-3-methylbutyl) nicotinamide] | 79 | < 1 | – | –
6 | CC(C)Nc1cc(-c2ccc3cc(C#N)cnn23)ncc1C(=O)NC[C@@H](F)C(C)(C)F [Example 531, (R)-6-(3-cyanopyrrolo[1,2-b]pyridazin-7-yl)-N-(2,3-difluoro-3-methylbutyl)-4-(isopropylamino)nicotinamide] | 34 | – | – | < 1
7 | CC(C)(O)[C@H](F)CNC(=O)c1cnc(-c2ccc3cc(C#N)cnn23)cc1Nc1cnn(C2CC2)c1 [Example 67, (R)-6-(3-cyanopyrrolo[1,2-b]pyridazin-7-yl)-4-((1-cyclopropyl-1H-pyrazol-4-yl)amino)-N-(2-fluoro-3-hydroxy-3-methylbutyl)nicotinamide] | 43 | < 1 | – | –
8 | CC(C)(O)[C@H](F)CNC(=O)c1cnc(-c2ccc3cc(C#N)cnn23)cc1N[C@]1(C)C[C@H](O)C1 [Example 433, 6-(3-cyanopyrrolo[1,2-b]pyridazin-7-yl)-N-((R)-2-fluoro-3-hydroxy-3-methylbutyl)-4-(((1s,3S)-3-hydroxy-1-methylcyclobutyl)amino) nicotinamide] | 47 | – | – | < 1
9 | CC(C)(O)[C@H](F)CNC(=O)c1cnc(-c2ccc3cc(C#N)cnn23)cc1Nc1nc(Cc2ccccc2)cs1 [Example 337, (R)-4-((4-benzylthiazol-2-yl)amino)-6-(3-cyanopyrrolo[1,2-b]pyridazin-7-yl)-N-(2-fluoro-3-hydroxy-3-methylbutyl)nicotinamide] | 73 | 5 | – | –
10 | CC(=O)NC(C)(C)c1ccc(Nc2cc(-c3ccc4cc(C#N)cnn34)ncc2C(=O)NC[C@@H](F)C(C)(C)O)cc1 [Example 215, (R)-4-((4-(2-acetamido-propan-2-yl)phenyl)amino)-6-(3-cyanopyrrolo[1,2-b]pyridazin-7-yl)-N-(2-fluoro-3-hydroxy-3-methylbutyl)nicotinamide] | 53 | 2 | – | –
11 | CNC(=O)c1cnc(-c2ccc3cc(C#N)cnn23)cc1NC12CCC(NC(C)=O)(CC1)C2 [Example 473, 4-((4-acetamido-bicyclo[2.2.1]heptan-1-yl)amino)-6-(3-cyano-pyrrolo[1,2-b]pyridazin-7-yl)-N-methylnicotinamide] | 33 | – | – | 1
12 | CC(C)Nc1cc(-c2ccc3cc(C#N)cnn23)ncc1C(=O)NNCC(C)(C)O [Example 69, 6-(3-cyanopyrrolo[1,2-b]pyridazin-7-yl)-N′-(2-hydroxy-2-methylpropyl)-4-(isopropylamino) nicotinohydrazide] | 515 | 7 | – | –
13 | CC(C)(O)[C@H](F)CNC(=O)c1cnc(-c2ccc3cc(C#N)cnn23)cc1N[C@@H]1CC[C@H](N)C1 [Example 309, 4-(((1R,3S)-3-aminocyclopentyl)amino)-6-(3-cyanopyrrolo[1,2-b]pyridazin-7-yl)-N-((R)-2-fluoro-3-hydroxy-3-methylbutyl)nicotinamide] | 623 | 2 | – | –
14 | COC(=O)NCc1ccc(Nc2cc(-c3ccc4cc(C#N)cnn34)ncc2C(=O)NC[C@@H](F)C(C)(C)O)cc1 [Example 225, (R)-methyl (4-((2-(3-cyano-pyrrolo[1,2-b]pyridazin-7-yl)-5-((2-fluoro-3-hydroxy-3-methylbutyl)carbamoyl)pyridin-4-yl)amino)benzyl)carbamate] | 6 | < 1 | – | –
15 | CNC(=O)OC[C@H](F)CNC(=O)c1cnc(-c2ccc3cc(C#N)cnn23)cc1NC12CCC(O)(CC1)CC2 [Example 743, (R)-3-(6-(3-cyano-pyrrolo[1,2-b]pyridazin-7-yl)-4-((4-hydroxy-bicyclo[2.2.2]octan-1-yl)amino)nicotin-amido)-2-fluoropropyl methylcarbamate] | 54 | – | – | < 1
16 | CNC(=O)c1cnc(-c2ccc3cc(C#N)cnn23)cc1NC(C)C [Example 38, 6-(3-cyanopyrrolo[1,2-b]pyridazin-7-yl)-4-(isopropylamino)-N-methylnicotinamide] | 91 | 2 | – | –
17 | CC(C)(O)[C@H](F)CNC(=O)c1cnc(-c2ccc3cc(C#N)cnn23)cc1N[C@H]1CCC[C@@H](N2CCOCC2)C1 [Example 524, 6-(3-cyanopyrrolo[1,2-b]pyridazin-7-yl)-N-((R)-2-fluoro-3-hydroxy-3-methylbutyl)-4-(((1S,3R)-3-morpholinocyclohexyl)amino)nicotinamide] | 97 | – | – | 1
18 | CC(C)(O)[C@H](F)CNC(=O)c1cnc(-c2ccc3cc(C#N)cnn23)cc1NC[C@@H](F)C(C)(C)O [Example 560, 6-(3-cyanopyrrolo[1,2-b]pyridazin-7-yl)-N-((R)-2-fluoro-3-hydroxy-3-methylbutyl)-4-(((R)-2-fluoro-3-hydroxy-3-methylbutyl)amino) nicotinamide] | 83 | – | – | < 1
19 | Cn1cnc(-c2ccc(Nc3cc(-c4ccc5cc(C#N)cnn45)ncc3C(=O)NC[C@@H](F)C(C)(C)O)cc2)n1 [Example 179, (R)-6-(3-cyanopyrrolo[1,2-b]pyridazin-7-yl)-N-(2-fluoro-3-hydroxy-3-methylbutyl)-4-((4-(1-methyl-1H-1,2,4-triazol-3-yl)phenyl)amino) nicotinamide] | 59 | 1 | – | –
20 | CC(C)(O)[C@H](F)CNC(=O)c1cnc(-c2ccc3cc(C#N)cnn23)cc1N[C@H]1CC[C@H](OC(=O)NC2CC2)CC1 [Example 163, (1R,4r)-4-((2-(3-cyano-pyrrolo[1,2-b]pyridazin-7-yl)-5-(((R)-2-fluoro-3-hydroxy-3-methylbutyl)carbamoyl)pyridin-4-yl)amino)cyclohexyl cyclopropylcarbamate] | > 10000 | 90 | – | –
21 | CC(C)(O)[C@H](F)CNC(=O)c1cnc(-c2ccc3cc(C#N)cnn23)cc1Nc1nc(-c2ccc(Oc3ccccc3)cc2)cs1 [Example 359, (R)-6-(3-cyanopyrrolo[1,2-b]pyridazin-7-yl)-N-(2-fluoro-3-hydroxy-3-methylbutyl)-4-((4-(4-phenoxyphenyl)thiazol-2-yl)amino)nicotinamide] | > 10000 | 614 | – | –
22 | CC(C)(O)[C@H](F)CNC(=O)c1cnc(-c2ccc3cc(C#N)cnn23)cc1NS(C)(=O)=O [Example 10, (R)-6-(3-cyanopyrrolo[1,2-b]pyridazin-7-yl)-N-(2-fluoro-3-hydroxy-3-methylbutyl)-4-(methylsulfonamido)nicotinamide] | > 10000 | 234 | – | –
23 | CC(C)(O)[C@H](F)CNC(=O)c1cnc(-c2ccc3cc(C#N)cnn23)cc1N[C@@H]1CNCCC1(F)F [Example 240, 6-(3-cyanopyrrolo[1,2-b]pyridazin-7-yl)-4-(((R)-4,4-difluoropiperidin-3-yl)amino)-N-((R)-2-fluoro-3-hydroxy-3-methylbutyl) nicotinamide] | 27 | 1 | – | –
24 | Cc1cncc(Nc2cc(-c3ccc4cc(C#N)cnn34)ncc2C(=O)NC[C@@H](F)C(C)(C)O)c1 [Example 233, (R)-6-(3-cyanopyrrolo[1,2-b]pyridazin-7-yl)-N-(2-fluoro-3-hydroxy-3-methylbutyl)-4-((5-methylpyridin-3-yl)amino)nicotinamide] | 170 | 1 | – | –
25 | CC(C)Nc1cc(-c2ccc3cc(C#N)cnn23)ncc1C(=O)NCCS(N)(=O)=O [Example 20, 6-(3-cyanopyrrolo[1,2-b]pyridazin-7-yl)-4-(isopropyl-amino)-N-(2-sulfamoylethyl)nicotinamide] | 128 | 2 | – | –
26 | CC(C)(O)[C@H](F)CNC(=O)c1cnc(-c2ccc3cc(C#N)cnn23)cc1N[C@@H]1CCOC[C@H]1F [Example 150, 6-(3-cyanopyrrolo[1,2-b]pyridazin-7-yl)-N-((R)-2-fluoro-3-hydroxy-3-methylbutyl)-4-(((3S,4R)-3-fluorotetrahydro-2H-pyran-4-yl)amino)nicotinamide] | 51 | < 1 | – | –
27 | CN1CCN(C(=O)C23CCC(Nc4cc(-c5ccc6cc(C#N)cnn56)ncc4C(=O)NC[C@@H](F)C(C)(C)O)(CC2)CC3)CC1 [Example 802, (R)-6-(3-cyanopyrrolo[1,2-b]pyridazin-7-yl)-N-(2-fluoro-3-hydroxy-3-methylbutyl)-4-((4-(4-methylpiperazine-1-carbonyl)bicyclo[2.2.2]octan-1-yl)amino) nicotinamide] | – | 2 | 157 | –
